Experimental data reported in paper PMC12145819, “Challenging activity and signaling bias in tachykinin NK1 and NK2 receptors by truncated neuropeptides” (The Journal of Biological Chemistry, 2025).
Values belong to the molecule of their own block, whether it stands above or below them. No end group written: not given here.

What was measured:
NK2R WT (human TACR2) [1] = molecular target: T1, NK2R WT (human TACR2) (Homo sapiens, UniProt P21452); assay: BRET-based cAMP assay (Gs activation), NK2R; format: cell-based
T1 construct: host or cells: COS7 cells, transient calcium-precipitation transfection
T1 sequence (P21452 1-398): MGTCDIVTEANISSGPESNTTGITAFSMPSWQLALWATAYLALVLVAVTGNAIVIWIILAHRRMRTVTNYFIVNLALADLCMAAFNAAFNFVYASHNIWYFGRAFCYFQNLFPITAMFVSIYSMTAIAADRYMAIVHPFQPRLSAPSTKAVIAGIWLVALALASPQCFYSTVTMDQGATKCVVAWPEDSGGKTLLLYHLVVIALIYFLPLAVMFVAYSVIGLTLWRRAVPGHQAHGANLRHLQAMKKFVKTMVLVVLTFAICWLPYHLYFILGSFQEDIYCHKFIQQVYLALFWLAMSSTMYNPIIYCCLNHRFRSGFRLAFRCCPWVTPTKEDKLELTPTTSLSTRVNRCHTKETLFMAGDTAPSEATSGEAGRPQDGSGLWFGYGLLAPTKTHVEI
Description: (§1) All receptor constructs of WT and modified human TACR1 and TACR2 were inserted into the pcDNA3.1(+)-C-DYK vector (Genscript) whereas CAMYEL ([34]) was expressed via pcDNA3.1(+) vector.
COS7 cells were tested monthly for mycoplasma and kept negative. COS7 cells were plated in either clear- or white- or white with clear bottom 96-well plates that were coated with poly-D-lysine (Sigma-Aldrich) 30 min prior to cell seeding (20.000 cells/well). The following day plates were transiently transfected using calcium precipitation with 200 ng/well DNA of receptor DNA and for the cAMP assays a 1000 ng/well of CAMYEL in a culture medium with the addition of 100 μM (final concentration) chloroquine. Transfection was stopped 5 h later with the addition of a fresh maintenance medium.
(§2) The intracellular level of cAMP was monitored in real-time using BRET. This was achieved by implementing a construct consisting of a cAMP binding protein (exchange protein activated by cAMP (EPAC)) which has been flanked by a BRET pair consisting of Renilla luciferase (Rluc) and yellow fluorescent protein (YFP). This construct is called CAMYEL (cAMP sensor using YFP-Epac-Rluc) and enables cAMP production to be sensed as Epac change conformations in response to increasing levels of cAMP, ultimately resulting in a loss of BRET signal.
On the day of the assay, white 96-well plates with COS7 cells were washed twice with 100 μl/well Hank’s balanced salt solution (HBSS) (GIBCO, Life Technologies) and preincubated for 30 min at 37 °C with 85 μl HBSS. Luciferase substrate coelenterazine h (Thermo Fisher Scientific) was added to a final concentration of 5 μM, and a baseline measurement was taken after 5 min. […] Determinations were made in minimum duplicates.
(§3) In both assay formats, the measurement window could shift between runs without affecting the overall curve shape. Emax and Emin values often shifted uniformly upward or downward, while the sigmoidal profile remained consistent, contributing to increased standard deviation.
(§4) All concentration-response curves have been calculated using Prism 10 software (GraphPad Software, www.graphpad.com) nonlinear regression with four parameters. SD is used for concentration-response curves to illustrate variability in experimental measurements. However, when comparing LogEC50 values, standard error of the mean (SEM) is used to reflect the precision of the estimated means and facilitate statistical comparisons. This approach ensures an accurate representation of variability while maintaining appropriate statistical rigor for hypothesis testing. All data consist of two technical replicates from three biological replicates. Statistical significance of differences between LogEC50 values (based on SEM estimates) was assessed using an unpaired two-tailed t test. Normal distribution of LogEC50 values was confirmed by the Shapiro–Wilk test. p-Values were represented using asterisks: ns for p > 0.05 (not significant), ∗ for p ≤ 0.05, ∗∗ for p ≤ 0.01, ∗∗∗ for p ≤ 0.001, and ∗∗∗∗ for p ≤ 0.0001.

NK2R WT (human TACR2) [2] = molecular target: T1, NK2R WT (human TACR2); assay: IP3 accumulation assay (Gq activation), NK2R; format: cell-based
Description: (§5) COS7 cells were plated in either clear- or white- or white with clear bottom 96-well plates that were coated with poly-D-lysine (Sigma-Aldrich) 30 min prior to cell seeding (20.000 cells/well). The following day plates were transiently transfected using calcium precipitation with 200 ng/well DNA of receptor DNA and for the cAMP assays a 1000 ng/well of CAMYEL in a culture medium with the addition of 100 μM (final concentration) chloroquine. Transfection was stopped 5 h later with the addition of a fresh maintenance medium.
(§6) COS7 cells seeded in clear 96-well plates were incubated with 0.5 μCi/ml myo [3H]inositol (PerkinElmer) in 100 μl growth medium overnight following the transfection. The subsequent day cells were washed twice with 200 μl/well HBSS (GIBCO, Life Technologies) and preincubated for 5 min at 37 °C with 100 μl/well HBSS buffer supplemented with 10 mM LiCl. Ligand addition was followed by 90 min incubation at 37 °C. To stop ligand incubation, cells were lysed with 40 μl 10 mM formic acid followed by 30 min incubation on ice. Subsequently, 35 μl of the lysate was transferred to white 96-well plates together with 60 μl of 1:8 diluted YSi SPA scintillation beads (PerkinElmer). Plates were sealed and vigorously shaken for 15 min followed by 5 min centrifugation at 1500 rpm. Measurements (scintillation) were recorded on a MicroBeta (PerkinElmer) after a 4 h delay, and determinations were made in duplicates.
as §3, §4

[3] = system: NK1R-R177 mutated to alanine; conditions: NK1R-R177 to alanine vs WT; cited from earlier work
[4] = system: NK1R-R177 mutated to lysine; conditions: NK1R-R177 to lysine vs WT; cited from earlier work
[5] = system: NK1R-Q24 mutated to asparagine; conditions: NK1R-Q24 to asparagine vs WT; cited from earlier work
NK1R WT (human TACR1) [6] = molecular target: T2, NK1R WT (human TACR1) (Homo sapiens, UniProt P25103); assay: BRET-based cAMP assay (Gs activation), NK1R; format: cell-based
T2 construct: host or cells: COS7 cells, transient calcium-precipitation transfection
Description: as §1
COS7 cells were maintained in Dulbecco's modified Eagle's medium 1885 with GlutaMAX supplemented with 10% fetal bovine serum (Sigma-Aldrich), 100 units/ml penicillin and 100 μg/ml streptomycin at 37 °C with 10% CO2. […] COS7 cells were plated in either clear- or white- or white with clear bottom 96-well plates that were coated with poly-D-lysine (Sigma-Aldrich) 30 min prior to cell seeding (20.000 cells/well). The following day plates were transiently transfected using calcium precipitation with 200 ng/well DNA of receptor DNA and for the cAMP assays a 1000 ng/well of CAMYEL in a culture medium with the addition of 100 μM (final concentration) chloroquine. Transfection was stopped 5 h later with the addition of a fresh maintenance medium.
as §2
On the day of the assay, white 96-well plates with COS7 cells were washed twice with 100 μl/well Hank’s balanced salt solution (HBSS) (GIBCO, Life Technologies) and preincubated for 30 min at 37 °C with 85 μl HBSS. Luciferase substrate coelenterazine h (Thermo Fisher Scientific) was added to a final concentration of 5 μM, and a baseline measurement was taken after 5 min. […] The BRET signal was calculated as the ratio of emission intensity at 535 nm (citrine) to the emission intensity at 475 nm (luciferase). Determinations were made in minimum duplicates.
as §3
All concentration-response curves have been calculated using Prism 10 software (GraphPad Software, www.graphpad.com) nonlinear regression with four parameters. SD is used for concentration-response curves to illustrate variability in experimental measurements. However, when comparing LogEC50 values, standard error of the mean (SEM) is used to reflect the precision of the estimated means and facilitate statistical comparisons. […] All data consist of two technical replicates from three biological replicates. Statistical significance of differences between LogEC50 values (based on SEM estimates) was assessed using an unpaired two-tailed t test. Normal distribution of LogEC50 values was confirmed by the Shapiro–Wilk test. p-Values were represented using asterisks: ns for p > 0.05 (not significant), ∗ for p ≤ 0.05, ∗∗ for p ≤ 0.01, ∗∗∗ for p ≤ 0.001, and ∗∗∗∗ for p ≤ 0.0001.

NK1R WT (human TACR1) [7] = molecular target: T2, NK1R WT (human TACR1); assay: IP3 accumulation assay (Gq activation), NK1R; format: cell-based
Description: as §5, §6, §3, §4

NK1R [8] = conditions: cited from earlier work
NK1R [9] = conditions: cited from earlier work; remark: listed apart in the source
[10] = Fig. 6A, given as log(EC50), transfected COS7 cells, three independent experiments in duplicates, read-out: log(EC50), cAMP - NK2R WT (converted)
[11] = Fig. 6B, given as log(EC50), transfected COS7 cells, three independent experiments in duplicates, read-out: log(EC50), IP3 - NK2R WT (converted)
[12] = Fig. 2A, acetylated analogs, given as log(EC50), transfected COS7 cells, three independent experiments in duplicates
[13] = read-out: log(EC50), IP3 - NK1R WT (converted)
[14] = read-out: log(EC50), cAMP - NK1R WT (converted)
[15] = Fig. 2C, analogs with free N termini, given as log(EC50), transfected COS7 cells, three independent experiments in duplicates
[16] = Fig. 2D, analogs with free N termini, given as log(EC50), transfected COS7 cells, three independent experiments in duplicates

T2 sequence (P25103 whole entry): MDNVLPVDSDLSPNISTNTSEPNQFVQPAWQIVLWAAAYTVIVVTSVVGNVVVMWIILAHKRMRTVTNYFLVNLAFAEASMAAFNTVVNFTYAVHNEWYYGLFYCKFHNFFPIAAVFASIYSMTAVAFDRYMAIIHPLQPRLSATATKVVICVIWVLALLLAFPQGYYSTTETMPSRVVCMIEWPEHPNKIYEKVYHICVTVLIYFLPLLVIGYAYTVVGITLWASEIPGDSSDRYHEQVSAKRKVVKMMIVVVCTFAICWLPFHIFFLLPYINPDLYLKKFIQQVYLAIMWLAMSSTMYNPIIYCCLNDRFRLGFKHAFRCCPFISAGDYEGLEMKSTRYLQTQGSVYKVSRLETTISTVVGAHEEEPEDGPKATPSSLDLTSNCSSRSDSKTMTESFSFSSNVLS

- EC50 (NK2R WT (human TACR2) [1]; [10]): 50.1 nM
- EC50 (NK2R WT (human TACR2) [2]; [11]): 20 nM
Molecule: CSCC[C@H](NC(=O)[C@H](CC(C)C)NC(=O)CNC(=O)[C@@H](NC(=O)[C@H](Cc1ccccc1)NC(=O)[C@H](CO)NC(=O)[C@H](CC(=O)O)NC(C)=O)C(C)C)C(N)=O [Ac-DSFVGLM-NH2]

Molecule: CSCC[C@H](NC(=O)[C@H](CC(C)C)NC(=O)CNC(=O)[C@@H](NC(=O)[C@H](Cc1ccccc1)NC(=O)[C@H](CO)NC(=O)[C@@H](N)CC(=O)O)C(C)C)C(N)=O [DSFVGLM-NH2]
- EC50 (NK2R WT (human TACR2) [1]): 10 nM
- increase in Gs potency compared to acetylated counterpart (NK2R WT (human TACR2) [1]; NK2R, Fig. 6A, analog with a free N terminal): five
- EC50 (NK2R WT (human TACR2) [2]): 10 nM

Molecule: CSCC[C@H](NC(=O)[C@H](CC(C)C)NC(=O)CNC(=O)[C@H](Cc1ccccc1)NC(=O)[C@H](Cc1ccccc1)NC(=O)[C@H](CCC(N)=O)NC(=O)[C@H](CCC(N)=O)NC(=O)[C@@H]1CCCN1C(=O)[C@H](CCCCN)NC(=O)[C@@H]1CCCN1C(=O)[C@@H](N)CCCNC(=N)N)C(N)=O [SP, substance P]
- reduction of binding affinity for SP (factor) [3]: 46
- reduction of binding affinity for SP (factor) [4]: 60
- reduction of binding affinity for SP (factor) [5]: five

- EC50 (NK1R WT (human TACR1) [6]; [12]): 3.98 nM
- reduction in Gs potency (NK1R WT (human TACR1) [6]; NK1R, relative to SP): 5.0 fold
- EC50 (NK1R WT (human TACR1) [7]; [13]): 1.58 nM
Molecule: Ac-QFFGLM-NH2 [Ac-QFFGLM-NH2]

- EC50 (NK1R WT (human TACR1) [6]; [12]): 1.26 nM
- EC50 (NK1R WT (human TACR1) [7]; [13]): 3.16 nM
Molecule: Ac-QQFFGLM-NH2 [Ac-QQFFGLM-NH2]

- EC50 (NK1R WT (human TACR1) [6]; [14]): 200 nM
- EC50 (NK1R WT (human TACR1) [7]; [13]): 7.94 nM
- EC50 (NK2R WT (human TACR2) [1]; [10]): 316 nM
- EC50 (NK2R WT (human TACR2) [2]; [11]): 50.1 nM
Molecule: Ac-SFVGLM-NH2 [Ac-SFVGLM-NH2]

- EC50 (NK1R WT (human TACR1) [6]; [15]): 15.8 nM
- EC50 (NK1R WT (human TACR1) [7]; [16]): 12.6 nM
- EC50 (NK1R WT (human TACR1) [7]; Fig. 5A, Gq activation, given as log(EC50), transfected COS7 cells, three independent experiments in duplicates): 20 nM
- lower Gq potency (NK1R WT (human TACR1) [7]; NK1R, Fig. 5A, compared with acetylated analog and SP): 15 fold
Molecule: QFFGLM-NH2 [QFFGLM-NH2]
- activity in IP3 accumulation assay (Gq) compared to SP (NK1R [8]): half activity
- lower activity in BRET-based cAMP assay (Gs) compared to SP (NK1R [9]): 16 fold

- EC50 (NK1R WT (human TACR1) [6]; [15]): 7.94 nM
- EC50 (NK1R WT (human TACR1) [7]; [16]): 5.01 nM
Molecule: QQFFGLM-NH2 [QQFFGLM-NH2]

- EC50 (NK1R WT (human TACR1) [6]; [14]): 316 nM
- EC50 (NK1R WT (human TACR1) [7]; [13]): 50.1 nM
- EC50 (NK2R WT (human TACR2) [1]; [10]): 1580 nM
- EC50 (NK2R WT (human TACR2) [2]; [11]): 200 nM
Molecule: SFVGLM-NH2 [SFVGLM-NH2]
